Source: ChEMBL document CHEMBL1145289, “Propidium-based polyamine ligands as potent inhibitors of acetylcholinesterase and acetylcholinesterase-induced amyloid-beta aggregation” (J Med Chem, 2005)

Legend:
Acetylcholinesterase [1] = target: T1, Acetylcholinesterase (Homo sapiens, UniProt P22303)
Description: Competitive inhibition constant for Acetylcholinesterase

Acetylcholinesterase [2] = target: T1, Acetylcholinesterase; remark: listed apart in the source
Description: Inhibition of Acetylcholinesterase

Cholinesterase = Cholinesterase (Homo sapiens, UniProt P06276)
Cholinesterase, sequence (P06276 whole entry): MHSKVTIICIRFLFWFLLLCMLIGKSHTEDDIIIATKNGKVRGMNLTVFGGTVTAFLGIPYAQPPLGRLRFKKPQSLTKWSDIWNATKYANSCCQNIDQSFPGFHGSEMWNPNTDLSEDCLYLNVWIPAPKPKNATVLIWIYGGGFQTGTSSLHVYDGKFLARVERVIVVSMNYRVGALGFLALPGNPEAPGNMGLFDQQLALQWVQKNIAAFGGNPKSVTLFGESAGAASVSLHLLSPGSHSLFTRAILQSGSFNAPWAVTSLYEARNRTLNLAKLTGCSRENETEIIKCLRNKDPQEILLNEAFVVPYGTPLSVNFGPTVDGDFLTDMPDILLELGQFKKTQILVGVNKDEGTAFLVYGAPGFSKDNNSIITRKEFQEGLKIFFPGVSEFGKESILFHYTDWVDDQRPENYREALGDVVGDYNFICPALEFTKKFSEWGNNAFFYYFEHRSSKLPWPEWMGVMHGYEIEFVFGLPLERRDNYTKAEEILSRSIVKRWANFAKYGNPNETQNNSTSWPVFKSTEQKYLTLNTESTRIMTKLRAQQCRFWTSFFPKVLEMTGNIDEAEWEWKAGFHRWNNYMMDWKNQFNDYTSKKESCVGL
Description: Inhibition of Butyrylcholinesterase

T1 sequence (P22303 whole entry): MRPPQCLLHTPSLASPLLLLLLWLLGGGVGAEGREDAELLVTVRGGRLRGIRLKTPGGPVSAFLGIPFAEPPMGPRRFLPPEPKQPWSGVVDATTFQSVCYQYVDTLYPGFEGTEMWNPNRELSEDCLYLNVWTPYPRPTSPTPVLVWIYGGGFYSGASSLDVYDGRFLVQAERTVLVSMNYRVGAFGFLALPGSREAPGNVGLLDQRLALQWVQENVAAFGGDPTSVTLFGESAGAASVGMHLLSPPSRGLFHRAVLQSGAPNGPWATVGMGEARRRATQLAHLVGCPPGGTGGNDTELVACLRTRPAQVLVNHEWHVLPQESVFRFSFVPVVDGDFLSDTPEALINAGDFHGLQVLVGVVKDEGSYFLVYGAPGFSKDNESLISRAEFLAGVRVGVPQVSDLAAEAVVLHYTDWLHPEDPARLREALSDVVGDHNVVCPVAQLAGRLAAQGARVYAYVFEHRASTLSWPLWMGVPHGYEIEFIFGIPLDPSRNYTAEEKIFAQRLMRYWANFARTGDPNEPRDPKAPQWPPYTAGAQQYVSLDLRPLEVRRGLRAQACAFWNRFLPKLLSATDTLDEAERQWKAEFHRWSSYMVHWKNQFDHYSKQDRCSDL

| SMILES | Ki (Acetylcholinesterase [1]) [nM] | IC50 (Acetylcholinesterase [2]) [nM] | IC50 (Cholinesterase) [nM] |
| --- | --- | --- | --- |
| Nc1ccc2c(c1)c(-c1ccccc1)[n+](CCCNCCCNCCCNc1c3c(nc4ccccc14)CCCC3)c1cc(N)ccc21 | 1.49 | 1.55 | 63.7 |
| COc1ccccc1CN(C)CCCN(C)CCCNCCC[n+]1c(-c2ccccc2)c2cc(N)ccc2c2ccc(N)cc21 | 894 | 952 | 2190 |
| COc1ccccc1CN(C)CCCCCC(=O)N(C)CCCCCCCCN(C)C(=O)CCCCCN(C)Cc1ccccc1OC [CAPROCTAMINE] | – | – | 11600 |
